Assays:
hA2B receptors = molecular target: T1, hA2B receptors (Homo sapiens, UniProt P29275); test: Adenosine receptor binding: binding affinities at hA2B receptors ([3H]-ZM241385 displacement); conditions: Table 1; for Ki: [3H]-ZM241385 displacement, HEK-293 membranes, read-out: Binding Affinity hA2B-Ki; for Binding Selectivity A2b/A2a: ratio of Ki values
T1 construct: host or cells: HEK-293
T1 sequence (P29275 1-332): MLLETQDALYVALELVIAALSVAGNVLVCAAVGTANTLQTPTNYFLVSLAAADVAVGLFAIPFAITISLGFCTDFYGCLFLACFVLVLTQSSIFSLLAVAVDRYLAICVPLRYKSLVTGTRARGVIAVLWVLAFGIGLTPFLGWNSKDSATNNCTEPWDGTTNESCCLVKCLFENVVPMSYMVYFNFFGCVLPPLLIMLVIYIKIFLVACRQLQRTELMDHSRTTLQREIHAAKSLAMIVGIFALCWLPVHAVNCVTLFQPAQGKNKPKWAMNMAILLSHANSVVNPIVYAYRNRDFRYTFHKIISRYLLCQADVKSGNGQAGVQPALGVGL

[1] = molecular target: T2, human adenosine A1 receptors (Homo sapiens, UniProt P30542); test: Adenosine receptor binding: binding affinities at hA1 receptors ([3H]DPCPX displacement); conditions: Table 1; for Ki: [3H]DPCPX displacement, CHO-K1 membranes, read-out: Binding Affinity hA1-Ki; for Binding Selectivity A1/A2a: ratio of Ki values
T2 construct: expressed in transfected cells; host or cells: CHO-K1
T2 sequence (P30542 1-326): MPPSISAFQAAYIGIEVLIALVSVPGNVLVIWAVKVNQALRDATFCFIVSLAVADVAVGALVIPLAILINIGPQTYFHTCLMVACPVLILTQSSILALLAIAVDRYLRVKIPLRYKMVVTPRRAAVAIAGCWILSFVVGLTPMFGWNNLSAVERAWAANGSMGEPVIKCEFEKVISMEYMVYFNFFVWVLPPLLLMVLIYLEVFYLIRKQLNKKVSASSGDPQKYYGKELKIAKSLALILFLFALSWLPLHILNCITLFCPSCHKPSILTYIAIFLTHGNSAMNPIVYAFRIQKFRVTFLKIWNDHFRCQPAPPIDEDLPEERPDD
Procedure: Adenosine Receptor Binding: Binding Affinities at hA1 Receptors
The resultant homogenate was kept for immediate use in the binding.
(§1) Binding assays were performed in a total volume of 250 μL, containing [^3H]-DPCPX (3.0 nM), membranes and additional drugs. Total binding was determined using drug dilution buffer (50 mM Tris-HCl pH:7.5, 10 mM MgCl2, 5% DMSO). Non-specific binding was determined using 300 μM N6-cyclohexyladenosine (CHA). […] Filters were left to dry overnight, and Microscint-0 scintillation fluid was then added to the filters. The filters were then left for at least 2 hours before the radioactivity was assessed using a Canberra Packard TopCount microplate scintillation counter.
To determine the free ligand concentration, three vials were counted with 25 μL of [^3H]DPCPX containing 4 mL of Ultima-Gold MV scintillant on a Beckman LS6500 multi-purpose scintillation counter.
(§2) Data was analysed using a 4 parameter logistical equation and non-linear regression which yields affinity constants (pIC50), and slope parameters:
(§3) [formula] where E is the quantity of binding and [A] is the competitor concentration. The Ki is then determined using the Cheng-Prusoff equation: […]

[2] = molecular target: T3, human adenosine A2A receptors (Homo sapiens, UniProt P29274); test: Adenosine receptor binding: binding affinities at hA2A receptors ([3H]CGS-21680 displacement); conditions: Table 1; [3H]CGS-21680 displacement, HEK-293 membranes; read-out: Binding Affinity hA2A-Ki
T3 construct: host or cells: HEK-293
T3 sequence (P29274 whole entry): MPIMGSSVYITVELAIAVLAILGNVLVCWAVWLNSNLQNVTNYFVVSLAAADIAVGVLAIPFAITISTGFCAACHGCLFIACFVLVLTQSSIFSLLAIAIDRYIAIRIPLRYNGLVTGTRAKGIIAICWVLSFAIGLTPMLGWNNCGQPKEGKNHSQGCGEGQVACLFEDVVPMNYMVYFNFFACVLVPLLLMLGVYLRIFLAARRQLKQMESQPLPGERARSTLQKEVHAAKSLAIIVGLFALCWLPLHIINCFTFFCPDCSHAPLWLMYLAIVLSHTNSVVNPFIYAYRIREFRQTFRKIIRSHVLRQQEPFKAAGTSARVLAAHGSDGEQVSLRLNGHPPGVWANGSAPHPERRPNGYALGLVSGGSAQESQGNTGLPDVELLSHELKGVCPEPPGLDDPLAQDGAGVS
Procedure: Adenosine Receptor Binding: Binding Affinities at hA2A Receptors
as §1, with “The resultant homogenate was kept for immediate use in the binding assay. Binding” for “Binding”, “[^3H]-CGS21680 (20.0” for “[^3H]-DPCPX (3.0”, “pH 7.5,” for “pH:7.5,”, “CHA.” for “N6-cyclohexyladenosine (CHA).”
To determine the free ligand concentration, three vials were counted with 25 μL of [^3H]CGS21680 containing 4 mL of Ultima-Gold MV scintillant on a Beckman LS6500 multi-purpose scintillation counter.
as §2, §3

[3] = test system: haloperidol-induced deficits in locomotor activity in mice; test: Haloperidol-induced hypolocomotion model (HaloLMA); type: in vivo; conditions: female TO mice, intraperitoneal, haloperidol 0.2 mg/kg
Text: Evaluation of Potential Anti-Parkinsonian Activity In Vivo: Haloperidol-Induced Hypolocomotion Model
This approach is also considered a valid method for screening drugs with potential antiparkinsonian effects. Thus, the ability of novel adenosine antagonists to block haloperidol-induced deficits in locomotor activity in mice can be used to assess both in vivo and potential antiparkinsonian efficacy.
Female TO mice (25-30 g) are used for all experiments. Animals are housed in groups of 8 (cage size-40 cm (width) by 40 cm (length) by 20 cm (height)) under 12 hour light/dark cycle (lights on 08:00), in a temperature (20±2° C.) and humidity (55±15%) controlled environment. Animals have free access to food and water, and are allowed at least 7 days to acclimatize after delivery before experimental use.
Liquid injectable haloperidol (e.g., 1 mL Serenance ampoules from Baker Norton, Harlow, Essex, each containing haloperidol BP 5 mg) are diluted to a final concentration of 0.02 mg/mL using saline. Test compounds are typically prepared as aqueous suspensions in 8% Tween. All compounds are administered intraperitoneally in a volume of 10 mL/kg.
1.5 hours before testing, mice are administered 0.2 mg/kg haloperidol, a dose that reduces baseline locomotor activity by at least 50%. Test substances are typically administered 5-60 minutes prior to testing. The animals are then placed individually into clean, clear polycarbonate cages (20 cm (width) by 40 cm (length) by 20 cm (height), with a flat perforated, Perspex lid). Horizontal locomotor activity is determined by placing the cages within a frame containing a 3 by 6 array of photocells linked to a computer, which tabulates beam breaks. Mice are left undisturbed to explore for 1 hour, and the number of beams breaks made during this period serves as a record of locomotor activity which is compared with data for control animals for statistically significant differences.
A number of the exemplified compounds of the present invention were tested in this assay and the results obtained are shown in Table 3, below.

[4] = molecular target: T4, human adenosine A3 receptors (Homo sapiens, UniProt P0DMS8); test: Adenosine receptor binding: binding affinities at hA3 receptors ([125I]-AB MECA displacement); conditions: Table 1; for Ki: [125I]-AB MECA displacement, CHO-K1 membranes, read-out: Binding Affinity hA3-Ki; for Binding Selectivity A3/A2a: ratio of Ki values
T4 construct: expressed in transfected cells; host or cells: CHO-K1
T4 sequence (P0DMS8 1-318): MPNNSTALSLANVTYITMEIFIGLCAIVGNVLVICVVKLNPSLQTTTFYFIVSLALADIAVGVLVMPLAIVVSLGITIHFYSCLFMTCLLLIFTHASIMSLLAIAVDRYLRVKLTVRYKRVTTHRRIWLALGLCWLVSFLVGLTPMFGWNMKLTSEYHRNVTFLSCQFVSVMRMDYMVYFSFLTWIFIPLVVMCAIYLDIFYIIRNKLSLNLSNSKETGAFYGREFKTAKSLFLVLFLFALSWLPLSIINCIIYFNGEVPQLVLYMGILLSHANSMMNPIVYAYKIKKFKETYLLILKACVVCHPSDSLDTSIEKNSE
Procedure: [formula] Adenosine Receptor Binding: Binding Affinities at hA3 Receptors
The resultant homogenate was kept for immediate use in the binding assay.
Total binding was determined using drug dilution buffer (50 mM Tris-HCl pH 7.5, 10 mM MgCl2, 5% DMSO). Non-specific binding was determined using 10 μM IB-MECA. […] Filters were left to dry overnight, and Microscint-0 scintillation fluid was then added to the filters. The filters were then left for at least 2 hours before the radioactivity was assessed using a Canberra Packard TopCount microplate scintillation counter.
as §2, §3

Structure (SMILES) | Ki (hA2B receptors) [nM] | Binding Selectivity A2b/A2a (hA2B receptors) | Ki [1] [nM] | Binding Selectivity A1/A2a [1] | Ki [2] [nM] | In Vivo activity HaloLMA MED [3] [mg/kg] | Ki [4] [nM] | Binding Selectivity A3/A2a [4] | melting point [°C]
CC(C)(O)c1cccc(Cn2nnc3c(-c4ccccc4)nc(N)nc32)n1 [Example 8, 7-phenyl-3-(6-[1-hydroxy-1-methylethyl]pyrid-2-ylmethyl)-3H-[1,2,3]triazolo[4,5-d]pyrimidin-5-amine] | 1300 | 269 | 214 | 44 | 4.8 | 3 | 3760 | 780 | –
Cc1ccc(-c2nc(N)nc3c2nnn3Cc2cccc(C3(O)CCCC3)n2)o1 [Example 3, 7-(5-methylfuran-2-yl)-3-(6-[1-hydroxy-1-cyclopentyl]pyrid-2-ylmethyl)-3H-[1,2,3]triazolo[4,5-d]pyrimidin-5-amine] | 976 | 602 | 366 | 226 | 1.6 | 1 | 754 | 465 | –
Cc1ccc(-c2nc(N)nc3c2nnn3Cc2cccc(COCC(F)(F)F)n2)o1 [Example 37, 7-(5-methylfuran-2-yl)-3-(6-[2,2,2-trifluoroethyl]oxymethylpyrid-2-ylmethyl)-3H-[1,2,3]triazolo[4,5-d]pyrimidin-5-amine] | 2380 | 536 | 231 | 52 | 4.4 | 1 | 2490 | 560 | –
Cc1ccc(-c2nc(N)nc3c2nnn3Cc2cccc(COC(F)F)n2)o1 [Example 31, 7-(5-methylfuran-2-yl)-3-(6-[difluoromethyloxymethyl]-pyrid-2-ylmethyl)-3H-[1,2,3]triazolo[4,5-d]pyrimidin-5-amine] | – | – | – | – | – | 1 | – | – | 194.8 to 195.1
CC(C)(O)c1cccc(Cn2nnc3c(-c4cccc(C#N)c4)nc(N)nc32)n1 [Example 20, 7-(3-cyanophenyl)-3-(6-[1-hydroxy-1-methylethyl]pyrid-2-ylmethyl)-3H-[1,2,3]triazolo[4,5-d]pyrimidin-5-amine] | 1240 | 93 | 731 | 54 | 13.4 | 3 | – | 634 | –
Cc1ccc(-c2nc(N)nc3c2nnn3Cc2cccc(C3(O)CCOCC3)n2)o1 [Example 5, 7-(5-methylfuran-2-yl)-3-(6-[4-hydroxyetrahydropyran-4-yl]pyrid-2-ylmethyl)-3H-[1,2,3]triazolo[4,5-d]pyrimidin-5-amine] | 4200 | 980 | 853 | 199 | 4.3 | 3 | – | 1989 | –
COc1cccc(-c2nc(N)nc3c2nnn3Cc2cccc(C(C)(C)O)n2)c1 [Example 14, 7-(3-methoxyphenyl)-3-(6-[1-hydroxy-1-methylethyl]pyrid-2-ylmethyl)-3H-[1,2,3]triazolo[4,5-d]pyrimidin-5-amine] | 437 | 73 | 498 | 83 | 6 | 30 | 613 | 102 | –
Cc1csc(-c2nc(N)nc3c2nnn3Cc2cccc(C3(O)CCCC3)n2)n1 [Example 27, 7-(4-methylthiazol-2-yl)-3-(6-[1-hydroxy-1-cyclopentyl]pyrid-2-ylmethyl)-3H-[1,2,3]triazolo[4,5-d]pyrimidin-5-amine] | 5740 | 510 | 1730 | 154 | 11.3 | 10 | 7520 | 668 | –
